On to `CCc1oc2ccccc2c1C(=O)NCc1ccc2c(Br)c(OC(Cc3ccccc3)C(=O)O)ccc2c1` (centres undefined), for which the melting point (usually the temperature of the solid-liquid transition) lay within 162 to 165 °C. In the case of `Cc1ccnc(S(=O)(=O)c2ccccc2)c1` it was 128 to 129 °C; in that of `CC(C)c1cn2nc(Cl)ccc2n1`, 106 to 108 °C.

`CCOC(=O)CC(C)Nc1ccc(OC)c(OC)c1` (centres undefined) displayed a melting point of 59 to 60 °C. In the case of `C#CCN1C(=O)C(=O)N(c2cc(Cl)ccc2C)C1=S` it was 162 to 164 °C.

`Cc1nc2nc(/C=C3/C(=O)N4C(C(=O)O)=CS[C@H]34)nn2c2c1CCCC2` came in with a melting point of 250 °C. In the case of `COc1ccc(CN(C)CCc2ccc(NC(=O)c3cccc4c(=O)c5c(OC)c(OC)c(OC)cc5[nH]c34)cc2)cc1OC` it was 158 °C; in that of `O=C1C=CN2c3ccccc3CCC2C1` (centres undefined), 135 to 137 °C. The molecule `NC(=O)c1ccc2c(c1)S(=O)(=O)N=CN2C1CC1` had a melting point of 278 to 281 °C. In the case of `O=c1[nH]c(=S)c(C2c3ccccc3C=Cc3ccccc32)cn1-c1ccc(Sc2n[nH]c(C(F)(F)F)n2)nn1` it was 165 °C; in that of `FC(F)(F)Oc1ccc2c(c1)nc(/C=C/c1ccccc1)n2-c1ccccn1`, 92 to 93 °C.

For the molecule `CCCC(O)c1ccc(C(=O)O)cc1` (centres undefined), the melting point was in the range of 109 to 113 °C. `CCCCc1nc2ccccc2c(=O)n1Cc1ccc(-c2ccccc2-c2nnn[nH]2)cc1` yielded a melting point of 180 to 182 °C. In the case of `CCOC(=O)c1c(Cl)c2cnccc2[nH]c1=O` it was 219 °C; in that of `CC1(C)COC(c2ccc(-c3ccc4cc(O)ccc4c3)cc2)=N1`, 221 to 223 °C; in that of `CNC(=O)c1cc(Cl)cc(Cl)c1NC(=O)c1cc(Br)nn1-c1ccccc1Cl`, 209 to 210 °C. To `OC(CCCN1CCC(c2ncco2)CC1)c1ccc(F)cc1` (centres undefined) belongs 99 to 100 °C; to `CCCc1c(C2CCC(c3ccccc3)(N(C)C)CC2)[nH]c2ccccc12` (centres undefined), 177 to 181 °C.

`C#Cc1ccc2c(=O)c(C(=O)OCC)cn(-c3ccc(F)cc3)c2c1` returned a melting point of 227 to 229 °C. In the case of `CCOC(=O)c1csc(Nc2ccc(F)cc2)n1` it was 133 to 136 °C; in that of `O=C(Nc1ccc(Br)cc1CO)C(F)(F)F`, 97 to 103 °C. On to `Oc1ccc(OCc2ccccc2)c2c1OCCO2`, for which the melting point was 131 °C. In the case of `COc1cc2c(cc1OCc1ccccc1)CCCC(=O)N2Cc1cc(OC)c(OC)c(OC)c1` it was 129 to 130 °C; in that of `O=S(=O)(Nc1ccc2c(OCc3ccc(C4CCCCC4)cc3)cccc2c1)C(F)(F)F`, 108 to 110 °C.

`CN(C)CCNc1c2c(nc3ccccc13)CCCC2O` (centres undefined) yielded a melting point of 135 to 138 °C. On to `O=C(O)c1ccc(C(F)(F)F)nc1C(F)(F)F`, for which the melting point was in the range of 102 to 104 °C. Take `COc1ccc(-n2c(=O)c(C(=O)C3=C(O)CCCC3=O)nc3c(Cl)cccc32)cc1`: the melting point lay within 249 to 251 °C.

In turn, `CCCCCCCCCCCCCCC(=O)CCl` returned a melting point of 52.5 to 53.5 °C.

Turning to `O=C1CCC(c2ccccc2)(c2ccccc2)C2CN(C(Cc3ccccc3)=NCCCc3ccccc3)CC12` (centres undefined), the melting point stood at 144 °C. To `COc1ccc(S(=O)(=O)Nc2cc(Cl)ccc2/C=C/c2ccncc2)cc1` belongs 190 to 193 °C; to `Cc1nc(-c2cc(C)c(OCCCc3cc(C(F)(F)F)no3)c(C)c2)no1`, 62 to 64.5 °C; to `N[C@H]1CC[C@@H](N2CCNC2=O)CC1`, 121 to 123 °C. To `OC(C1=NCC2CCCCN12)(c1ccccc1)c1ccccc1` (centres undefined) belongs 131 to 133 °C; to `O=C1C2=C(SCCO2)C(=O)N1c1ccc2cccnc2n1`, 200 °C; to `Cc1cc2c(S(C)(=O)=O)nc(CCC(F)(F)F)nc2s1`, 60 to 61 °C.

Molecule `COc1ccc(-c2oc3c(C(=O)O)cccc3c(=O)c2C)cc1` registered a melting point of 266 to 267 °C. To `CCCn1c(C)nc(N2CCc3ccccc3CC2)c([N+](=O)[O-])c1=O` belongs 164 to 170 °C; to `NC(=S)Nc1ccc(C2=NNC(=O)Cc3cc4c(cc32)OCO4)cc1`, 236 to 238 °C. In the case of `N#Cc1cc(Cn2cncn2)ccc1-c1ccc(O)c(Cl)c1` it was 195 to 197 °C; in that of `CC(C)(C)c1cc(-c2nn(CC(F)(F)F)c3ncccc23)cc(C(C)(C)C)c1O`, 104 to 106 °C. To `Cc1cccc(NC(c2ccc(OC(C)C)cc2)c2ccc3cccnc3c2O)n1` (centres undefined) belongs 132 to 134 °C; to `NC(=O)C[C@H](NC(=O)c1ccc(OCc2ccccc2)cc1OCc1ccccc1)C(=O)N1CCN(Cc2ccccc2)CC1`, 66 to 68 °C.

`COC(=O)CCCC#Cc1cc(Cl)ccc1NS(=O)(=O)c1ccc2nc(C)sc2c1` had a melting point of 103 to 106 °C.

Molecule `CCOC(=O)c1ccc2[nH]cc(C3CCN(C)CC3)c2c1` showed a melting point of 155 to 157 °C. `Cc1ccc(C2c3[nH]c4ccccc4c3CCN2C(=O)C=Cc2cc([N+](=O)[O-])ccc2Cl)cc1` (centres undefined) gave a melting point of 211 to 213 °C. As to `C=CCNc1nc(C)c(C(=O)c2ccc(N)c([N+](=O)[O-])c2)s1`, the melting point is 250 to 252 °C.

For `Cc1nccnc1C(=O)Nc1ccccc1-c1ccc(OC(F)(F)F)cc1`, the melting point is 120 to 121 °C. In the case of `NC(=O)c1ccc(-c2cccc3cc(Cc4cc(F)cc(Cl)c4)sc23)cc1` it was 202 to 203 °C; in that of `CC(CCN(C)c1ccccc1)NCC(O)c1ccc(O)c(C(N)=O)c1` (centres undefined), 150 to 152 °C; in that of `O=C(NCC(=O)c1ccco1)c1ccc(F)cc1`, 153 to 155 °C.

As to `CCOC(=O)c1sc(Cn2cc(Cl)cnc2=O)nc1C`, the melting point lay in the range of 169 to 171 °C. In turn, `Cn1cc(-c2cccc(Cl)c2)c(=O)c(-c2cccc(Br)c2)c1` yielded a melting point of 192 °C. In the case of `CC(C)(C)OC(=O)NC1CCCC2(CCCC2)NC1=O` (centres undefined) it was 180 to 181 °C; in that of `CCOC(=O)COc1ccc(C(=O)Nc2cc(Cl)ccc2Sc2ccccc2-c2nnn[nH]2)cc1`, 206 to 208 °C. `Cc1nnc(NC(=O)C2c3ccccc3Oc3ccccc32)o1` displayed a melting point of 261 to 263 °C. To `COc1cc(C(=O)NS(=O)(=O)c2ccccc2C)ccc1Cc1cn(C)c2ccc(CC(C)C(=O)NCC3CCCC3)cc12` (centres undefined) belongs 119 to 126 °C; to `COC(=O)c1ccc(OC(=O)Cl)cc1`, 52 to 53 °C; to `CCOc1ccccc1C(=O)NCCN1CCC(O)(c2ccc(Cl)cc2)CC1`, 171 to 173 °C.

As for `OCc1ccc(-c2ccc3nnn(Cc4ccc(F)cc4)c3n2)cc1`, the melting point was in the range of 210 to 213 °C.

`CN1Cc2c(Br)ncn2-c2ccccc2C1=O` came in with a melting point of 196 to 198 °C. To `N#CCCCCC(=O)c1ccc(Br)cc1` belongs 47 to 48 °C; to `CCc1[nH]n(C2CCCC2)c2nc(-c3ccccc3O)nc(=O)c1-2`, 272 to 273 °C; to `CSc1nn2c(N3CCNCC3)cc(C)nc2c1S(=O)(=O)c1ccccc1`, 137 to 139 °C. To `O=S1(=O)NCN(C2CCCCCC2)c2cc(Cl)c(Cl)cc21` belongs 191 to 192 °C; to `CC(=O)Oc1ccc(-n2c(-c3ccccc3)cc3c2CCc2ccccc2-3)cc1C(=O)O`, 194 to 196 °C; to `O=C1C(Cl)=C(c2ccccc2)C(=O)c2ccccc21`, 111 to 112 °C. In the case of `COc1cc(N)c(Cl)cc1C(=O)NCC1CCN(CCCCCNC(=O)c2ccccc2)CC1` it was 138 to 140 °C.

Regarding `Nc1ncc(-c2ccc(=O)[nH]n2)c(-c2ccccc2)n1`, the melting point was > 280 °C. Molecule `Nc1cc(Oc2ccc(S(=O)(=O)c3ccc(OCc4ccccc4)c(Cl)c3)cc2Cl)c([N+](=O)[O-])cc1O` had a melting point of 181 to 184 °C. Molecule `Nc1cc(-c2ccc(CO)o2)nn1Cc1ccccc1` gave a melting point of 163 °C. With `OC(CCC1CCNCC1)c1cc(C2CCCCC2)nc2ccccc12` (centres undefined), the melting point was in the range of 190 to 191 °C. On to `N#Cc1c(CCl)[nH]c(=O)[nH]c1=O`, for which the melting point was 229 °C. To `CNC(=O)Cn1c(=O)c(=O)[nH]c2cc(C(F)(F)F)c(-n3cccc3)cc21` belongs > 250 °C; to `N#CCN1CCC(=C2c3ccccc3CCn3ccnc32)CC1`, 220 °C.

In turn, `Cc1cc(Oc2ccc(Cl)nn2)c(C)cc1N` registered a melting point of 138 to 140 °C. To `Cc1nc(-c2ccc(N3CCN(C)CC3)c([N+](=O)[O-])c2)sc1C(=O)O` belongs 218 to 220 °C; to `CCOC(=O)c1c(-c2cccc(Cl)c2)c2cc(C(c3nc(-c4ccccc4)cs3)n3ccnc3-c3ccccc3)ccc2[nH]c1=O` (centres undefined), 149 °C; to `CN(CCc1c[nH]c2ccc(NC(N)=O)cc12)C(=O)C(F)(F)F`, 193 to 194 °C. For the molecule `COC(=O)C1Cc2c([nH]c3ccccc23)CN1` (centres undefined), the melting point fell in the range of 164 to 165 °C. In the case of `N#CC1c2ccccc2COc2ccccc21` (centres undefined) it was 65 to 66.5 °C; in that of `CSCCC(=O)Nc1sc(-c2cccnc2)nc1SC`, 72 to 74 °C. To `CC(=NOCCOc1ccc(CC2SC(=O)NC2=O)cc1)c1ccc(Cl)cc1` (centres undefined) belongs 118 to 119 °C; to `COC(=O)c1cc2cc(OC)ccc2cc1/N=C/N(C)C`, 160 to 162 °C; to `CCc1cccc(C(C)C)c1N1C(=O)CN(CC)C1=S`, 77 to 79 °C. In the case of `Cc1ncsc1CCNC(=O)c1cnc(N2CCN(C(=O)c3c(-c4ccccc4)n(C)c4cccnc34)CC2)cn1` it was 225 °C; in that of `Cc1c(C(=O)Nc2ccc(N3CCC(N4CCOCC4)CC3)c(C#N)c2)cnn1CCc1ccccc1`, 195 °C; in that of `FC(F)Sc1nnc(-c2cnccn2)s1`, 113 to 115 °C. With `O=[N+]([O-])c1cc(CS(=O)(=O)Cc2ccc(O)c([N+](=O)[O-])c2)ccc1O`, the melting point is 166 to 168 °C. In the case of `CC(C)c1cc(CCC(=O)NCc2cccc(NC(=N)c3cccs3)c2)cc(C(C)C)c1O` it was 144 to 145 °C.

For the origin of these results see a melting point compilation (Tetko et al.; mined from patent text by program, amines drawn as free bases though some values may be those of a salt).
